Test results: patent US7094798B1, “Inhibitors of checkpoint kinases (Wee1 and Chk1)” (Pfizer Inc, priority 2002, dated 2006)
pIC50: −log10 of the molar value. Read-outs that look alike come from different tables or passages of the source.

Tests used:
Chk1 enzyme = biological target: T1, Chk1 enzyme (Homo sapiens, UniProt O14757); experiment: Chk1 enzyme inhibition assay; assay type: biochemical; conditions: isolated Chk1 enzyme, GST-Cdc25 substrate; read-out: CHK1A IC50
T1 construct: purchased Onyx Pharmaceuticals
T1 sequence (O14757 1-476): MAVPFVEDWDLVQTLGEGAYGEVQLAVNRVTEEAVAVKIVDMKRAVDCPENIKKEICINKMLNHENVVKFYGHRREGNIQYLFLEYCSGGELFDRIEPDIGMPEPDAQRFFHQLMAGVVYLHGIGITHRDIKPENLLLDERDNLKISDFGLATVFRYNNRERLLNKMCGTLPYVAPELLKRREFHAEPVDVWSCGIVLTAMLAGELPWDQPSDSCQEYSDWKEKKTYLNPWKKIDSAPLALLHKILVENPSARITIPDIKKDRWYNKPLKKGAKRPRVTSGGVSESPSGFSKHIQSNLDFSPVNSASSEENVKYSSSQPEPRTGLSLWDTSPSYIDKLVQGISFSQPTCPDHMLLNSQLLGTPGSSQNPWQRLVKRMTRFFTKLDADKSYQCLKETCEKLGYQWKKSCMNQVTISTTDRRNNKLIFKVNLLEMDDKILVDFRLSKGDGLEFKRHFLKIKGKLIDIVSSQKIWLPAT
Description: The assay was carried out in round bottom polypropylene 96-well plates (Costar). Compounds were tested in serial dilutions beginning with a high concentration of 50 μM followed by up to nine 3-fold dilutions. Compounds were dissolved and diluted in DMSO. 2 μl of drug were spotted on the bottom of the assay plates, then diluted with 58 μl of Chk1 buffer (20 mM Tris, pH 8.0, 50 mM NaCl, 10% Glycerol, 10 mM MgCl2, 5 mM dithiothreitol), and mixed at room temperature for 1 minute. […] Contents of the wells were mixed for 1 minute and incubated at room temperature for 10 minutes. […] The contents were mixed for 1 minute and incubated at 30° C. for 30 minutes. The reaction was stopped by adding 50 μl of 120 mM EDTA to each well, except the control wells already containing EDTA. 140 μl of the contents of the wells were transferred to the wells of Reacti-Bind Glutathione Coated White 96-Well Plates (Pierce). Contents were mixed for 1 minute and incubated at room temperature for 1 hour. All of the wells were rinsed three times each with 300 μl PBS and air dried. 200 μl MicroScint 20 (Packard) was put in the wells. Plates were sealed with an adhesive cover and counted in a Top Count Microplate Scintillation counter (Packard). Activity of compounds was calculated in comparison to uninhibited control determinations in each assay.

[1] = biological target: T2, PKC contained in a rat brain preparation; experiment: Protein Kinase C (PKC) assay; assay type: biochemical; conditions: histone H1 substrate
T2 construct: Enzyme was prepared from a preparation of rat brain (Promega) 0.5 μg diluted with 1.6 ml of 10 mM Hepes buffer pH 7.5
Description: The PKC assay provides a measure of inhibitory activity of the test compounds against PKC contained in a rat brain preparation.
Enzyme was prepared from a preparation of rat brain (Promega) 0.5 μg diluted with 1.6 ml of 10 mM Hepes buffer pH 7.5. Reaction buffer was comprised of 150 mM Hepes buffer, 4 mM CaCl2, 15 mM MgCl2, 3 mM EDTA, 3.75 mM EGTA at pH 7.5. Histone substrate was made by dissolving histone H1 (Sigma) in water at 1.5 mg/ml. Phosphatidylserine/diolein liposomes were made by mixing 75 μl of 10 mg/ml phosphatidylserine (Sigma) in CHCl3 with 60 μl of 2.5 mg/ml diolein in CHCl3 (Sigma) in a glass vial and evaporating the CHCl3 under N2. The film was suspended in 1 ml water and sonicated 6×15 sec with a microtip probe at room temperature.
To carry out the assay, 50 μl buffer, 20 μl histone, 20 μl liposomes, and inhibitor or solvent control were added to wells of a 96-well filter plate (Millipore) with enough water, if necessary, to make the final volume 110 μl. 20 μl of enzyme preparation solution were added and incubated for 10 minutes at room temperature. This was followed by the addition of 20 μl of ^32P ATP (75 μM ATP in water, labeled ATP at 25 μCi/ml) which was incubated for 15 minutes at room temperature. The reaction was terminated by the addition of 50 μl of 40% (w/v) trichloroacetic acid. The filters were washed by vacuum filtration with 5×125 μl of ice cold 10% (w/v) trichloroacetic acid. The filters were placed in scintillation fluor and counted to determine precipitated labeled phosphate incorporated into substrate. The percent inhibition was calculated in comparison to the uninhibited controls.

[2] = biological target: T3, human Wee1 kinase aa215-647 (Homo sapiens, UniProt P30291); experiment: Wee1 inhibition filter binding assay (OY); assay type: biochemical; conditions: isolated Wee1 kinase, Poly Ornithine:Tyrosine (4:1) substrate; read-out: WEE1OY IC50
T3 construct: human Wee1 kinase aa215-647; purchased Onyx Pharmaceuticals; host or cells: baculovirus protein expression system
Description: This assay provides a measure of inhibitory ability of the test compounds against isolated Wee1 kinase.
The Wee1 kinase assay measures enzyme mediated phosphorylation of tyrosine on a synthetic peptide substrate in the presence of compounds being tested. […] Compounds were dissolved and diluted in DMSO, 10 μl 3×EDB buffer (150 mM Tris, pH 8.0, 30 mM NaCl, 30 mM MgCl2, 3 mM DTT), 18 μl water, and 2 μl of drug dilution were added to the test wells and mixed thoroughly, 10 μl of enzyme-substrate mixture was added to the wells. […] The plates were mixed thoroughly for 5 minutes at room temperature. […] The reaction was stopped by adding 50 μl of ice cold 20% TCA with 0.1 M tetrasodium pyro-phosphate. Plates were incubated on ice or refrigerated at 4° C. for 1 hour. Liquid reaction mixture was removed on a vacuum manifold, and the precipitated phosphorylated substrate was rinsed 5 times with 200 μl ice cold 10% TCA with 0.1 M tetrasodium pyrophosphate. 25 μl liquid scintillation cocktail were added to the membrane bound substrate and the plate read in a Microbeta (Perkin-Elmer) plate reader. Activity of compounds was calculated in comparison to uninhibited control determinations in each assay.

[3] = tested on: L1210 murine leukemia tumor cells; experiment: Cell cycle distribution of L1210 cells treated in vivo; set-up: species or system mice; conditions: cisplatin 6 mg/kg, compound of Example 80 20 mg/kg, 24 hours after administration
HT-29 cells [4] = experiment: MPM-2 assay (mitotic index) in cultured HT-29 cells; assay type: cell-based; conditions: compound 312.5 nM
Description: This assay uses […] antibody to quantitate the M-phase specific histological markers in the determination of a mitotic index (fraction of cells found in mitosis).
HT-29 cells were grown in Dulbecco's Modified Eagle Medium with high glucose, supplemented with 1 mM sodium pyruvate, 2 mM L-glutamine, 16 mM HEPES, 8 mM MOPS, and 10% fetal bovine serum. They were incubated at 37° C. in an atmosphere of 5% CO2 and 100% relative humidity.
Cells were seeded in 96-well tissue culture plates at 100 μl per well at a concentration of 40,000 per ml. The cells were allowed to attach and begin growing for 24 hours. 100 μl of adriamycin (ADR) at 2 μM (final=1 μM) was added to test cells and the cells incubated for 1 hour as above. Following the incubation, the plates were washed 2 times with growth media. The media was replaced with 100 μl fresh media and incubate a further 16 hours. Serial 2-fold dilutions of potential abrogators were added to the test wells. The rows that received nocodazole (NOC) have 2 μl NOC added at 2.5 μg/ml. The plates were then incubated an additional 6 hours. Following the incubation, the plates were centrifuged for 5 minutes at 4° C. at 200 g. One hundred microliters of Carnoy's fixative, 3 parts methanol to 1 part acetic acid, was added directly to each well and left at room temperature for 15 minutes. The media/fixative mixture was removed by suction and replaced with ice cold ethanol:acetic acid in a 20:1 ratio. The plates were stored at 4° C. until stained.
The fixed cells were stained for MPM-2 using the Upstate Biotechnology MPM-2 rhodamine detection kit per manufacturer's instructions. Briefly, the cells were washed with Dulbecco's phosphate buffered saline (DPBS) with calcium and magnesium followed by incubation with blocking buffer consisting of 8% bovine serum albumen (BSA) for a minimum of 1 hour. The cells were then washed with PBS one time and treated overnight at 4° C. with primary antibody at 5 μg/ml (100 μl per well) diluted with DPBS with 1% BSA. The cells were then washed twice for 15 minutes each with DPBS and then incubated with a 1:1000 dilution of rhodamine conjugated goat antimouse IgG in DPBS with 1% BSA for 1 hour. The secondary antibody was washed off in three 30-minute washes with DPBS. The cells were then counterstained using the Molecular Probes Mycoflour kit to stain nuclei following the instructions for the kit.
The stained cells were viewed under fluorescence microscopy using fluorescence filters suitable for detecting rhodamine and DAPI stains. Images were captured using a Spot digital camera and images analyzed using ImageQuant to quantitate total nuclei and to count MPM-2 positive cells.

HT-29 cells [5] = experiment: Clonogenic assay in HT-29 cells ± Adriamycin; assay type: cell-based; conditions: Homo sapiens, compound 250 nM
Description: This cellular assay is a measure of the toxicity of the test compounds in the absence and presence of DNA damage induced by a conventional chemotherapeutic agent.
HT-29 cells were grown in Dulbecco's Modified Eagle Medium with high glucose, supplemented with 1 mM sodium pyruvate, 2 mM L-glutamine, 16 mM HEPES, 8 mM MOPS, and 10% fetal bovine serum. The cells were incubated at 37° C. in an atmosphere of 5% CO2 and 100% relative humidity.
Two or three T-75 tissue culture flasks were seeded at about 50% confluency in 30 ml media and incubated for approximately 24 hours. Adriamycin (ADR) (dissolved at 5 mM in distilled water (dH2O)) was added to the flasks to a final concentration of 1 uM or 500 nM. One flask received no ADR. The cells were allowed to incubate with the ADR for 1 hour. All flasks were then washed twice with 20 ml media allowed to incubate a further 16 hours in 30 ml media.
The stock agar (3.2% Seaplaque GTG Agarose (BioWhittaker Molecular Applications)) was suspended in distilled water and autoclaved for 20 minutes. The agar was melted prior to use in a microwave oven. […]
The cells were trypsinized using Trypsin-EDTA and their concentration adjusted to […] with media. […] The colonies were counted using a Hamamatsu video imaging system and ImageQuant software.

T3 sequence (P30291 215-646 limits assumed): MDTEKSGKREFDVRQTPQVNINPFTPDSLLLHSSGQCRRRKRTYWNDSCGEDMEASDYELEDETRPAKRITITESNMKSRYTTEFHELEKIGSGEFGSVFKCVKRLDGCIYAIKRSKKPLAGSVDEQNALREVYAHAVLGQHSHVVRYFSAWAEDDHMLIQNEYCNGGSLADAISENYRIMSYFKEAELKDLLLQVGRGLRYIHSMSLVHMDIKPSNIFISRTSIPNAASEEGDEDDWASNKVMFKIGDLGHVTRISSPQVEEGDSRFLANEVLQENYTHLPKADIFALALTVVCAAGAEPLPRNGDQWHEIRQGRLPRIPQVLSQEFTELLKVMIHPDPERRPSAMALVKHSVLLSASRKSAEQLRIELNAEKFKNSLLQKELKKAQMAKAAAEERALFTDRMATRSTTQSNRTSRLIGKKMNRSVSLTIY

**Q.** With `COc1ccc2[nH]c3c(c2c1)C1C(=O)NC(=O)C1C(c1ccccc1Cl)C3` (mixture of isomers) [Example 68, 4-(2-Chlorophenyl)-9-methoxy-4,5,6,10c-tetrahydropyrrolo[3,4-c]carbazole-1,3(2H,3aH)-dione] as the molecule, how does the pIC50 (Chk1 enzyme) read?
**A.** 6.36

**Q.** What about the pIC50 [1] of the same molecule?
**A.** 6.32

**Q.** And the pIC50 [2]?
**A.** 7.96

**Q.** `N.N.[Cl][Pt][Cl]` [Cisplatin, reference compound] was tested. Which “Cell cycle distribution of L1210 cells, G1” value [3] did it give?
**A.** 14.0%

**Q.** What about the “Cell cycle distribution of L1210 cells, G2M” value [3] of the same molecule?
**A.** 59.6%

**Q.** And the “Cell cycle distribution of L1210 cells, S” value [3]?
**A.** 26.4%

**Q.** With `O=C1NC(=O)c2c1c(-c1ccccc1Cl)cc1c2c2cc(O)ccc2n1CCCO` [Example 80, 4-(2-Chlorophenyl)-9-hydroxy-6-(3-hydroxypropyl)pyrrolo[3,4-c]carbazole-1,3(2H,6H)-dione] as the molecule, how does the pIC50 [1] read?
**A.** 5.83

**Q.** What about the “Cell cycle distribution of L1210 cells, G1” value [3] of the same molecule?
**A.** 60.0%

**Q.** What about the “Cell cycle distribution of L1210 cells, G2M” value [3] of the same molecule?
**A.** 12.4%

**Q.** What about the “Cell cycle distribution of L1210 cells, S” value [3] of the same molecule?
**A.** 27.6%

**Q.** `O=C1NC(=O)c2c1c(-c1c(Cl)cccc1Cl)cc1c2c2cc(O)ccc2n1CCO` [Example 94, 4-(2,6-Dichlorophenyl)-9-Hydroxy-6-(2-hydroxyethyl)pyrrolo[3,4-c]carbazole-1,3(2H,6H)-dione] was tested. Which pIC50 [1] did it give?
**A.** 5.74

**Q.** How did the pIC50 [1] turn out when `CN(C)CCNC(=O)CCn1c2ccc(O)cc2c2c3c(c(-c4ccccc4)cc21)C(=O)NC3=O` [Example 214, N-[2-(Dimethylamino)ethyl]-3-(9-hydroxy-1,3-dioxo-4-phenyl-2,3-dihydropyrrolo[3,4-c]carbazol-6 (1H)-yl)propanamide] was run?
**A.** 6.77

**Q.** With `O=C(O)CCn1c2ccc(O)cc2c2c3c(c(-c4ccccc4Cl)cc21)C(=O)NC3=O` [Example 230, 3-(4-(2-Chlorophenyl)-9-hydroxy-1,3-dioxo-2,3-dihydropyrrolo[3,4-c]carbazol-6 (1H)-yl)propanoic acid] as the molecule, how does the pIC50 [1] read?
**A.** 5.82

**Q.** What does the source list for `CN(C)CCCOc1cc2c(cc1O)c1c3c(c(-c4ccccc4Cl)cc1n2C)C(=O)NC3=O` [Example 363, 4-(2-Chlorophenyl)-8-[3-(dimethylamino)propoxy]-9-hydroxy-6-methylpyrrolo[3,4-c]carbazole-1,3(2H,6H)-dione]?
**A.** % of cells in M phase, + Media (HT-29 cells [4]; 6 hours): 26.4%; % of cells in M phase, + ADR (HT-29 cells [4]; after ADR 1 μM 1 hour and 16 hours): 18.9%; % of cells in M phase, + ADR + NOC (HT-29 cells [4]; after ADR 1 μM, with nocodazole 6 hours): 86.2%; % of cells in M phase, + NOC (HT-29 cells [4]; with nocodazole 6 hours): 37.2%

**Q.** For `Cn1c2cc(OCCCN3CCCC3)c(O)cc2c2c3c(c(-c4ccccc4Cl)cc21)C(=O)NC3=O` [Example 366, 4-(2-Chlorophenyl)-9-hydroxy-6-methyl-8-[3-(1-pyrrolidinyl)propoxy]pyrrolo[3,4-c]carbazole-1,3(2H,6H)-dione], which activity at 0.25 µM (HT-29 cells [5]; Adriamycin pretreatment 1 hour, read-out: % of Control Colonies With DNA Damage) is on record?
**A.** 2.8%

**Q.** What about the activity at 0.25 µM (HT-29 cells [5]; no Adriamycin, read-out: % of Control Colonies With No DNA Damage) of the same molecule?
**A.** 38%

**Q.** `O=C1NC(=O)c2c1c(-c1ccccc1)cc1oc3ccc(O)cc3c21` [Example 369, 9-Hydroxy-4-phenyl-1H-[1] benzofuro[3,2-e]isoindole-1,3(2H)-dione] was tested. Which pIC50 [1] did it give?
**A.** < 5.40
